The text below walks through data of publication PMC6230509 (Neuropharmacology, 2018).

Bounds are passed on as bounds.

The target in assay [1] is 5-HT6 (Homo sapiens, UniProt P50406). Kind of assay: NIMH PDSP radioligand competition binding, 5-HT6.
Assay [2] deals with 5-HT7 (Homo sapiens, UniProt P34969). Kind of assay: NIMH PDSP radioligand competition binding, 5-HT7. (Loss of bound radioactivity is the signal in a displacement assay; it reports binding, not function.)
Assay [3] addresses T1, α1B (Homo sapiens, UniProt P35368).
T1 sequence (P35368 1-520): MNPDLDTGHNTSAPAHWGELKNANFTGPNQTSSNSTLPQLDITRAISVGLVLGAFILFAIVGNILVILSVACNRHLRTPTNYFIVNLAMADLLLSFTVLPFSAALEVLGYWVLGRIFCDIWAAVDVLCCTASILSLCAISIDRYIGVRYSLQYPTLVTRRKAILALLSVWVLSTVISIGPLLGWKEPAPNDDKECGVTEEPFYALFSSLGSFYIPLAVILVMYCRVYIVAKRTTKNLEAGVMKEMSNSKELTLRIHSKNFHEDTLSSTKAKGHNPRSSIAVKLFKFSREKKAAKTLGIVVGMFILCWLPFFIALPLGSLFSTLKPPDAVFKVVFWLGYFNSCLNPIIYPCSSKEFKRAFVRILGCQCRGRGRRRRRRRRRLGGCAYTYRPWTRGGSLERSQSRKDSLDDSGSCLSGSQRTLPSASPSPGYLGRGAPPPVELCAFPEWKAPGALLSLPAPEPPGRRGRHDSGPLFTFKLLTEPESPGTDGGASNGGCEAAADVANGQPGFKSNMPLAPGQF
Kind of assay: NIMH PDSP radioligand competition binding, α1B.

Assay [4] has as its target T2, α1D (Homo sapiens, UniProt P25100).
T2 sequence (P25100 1-572): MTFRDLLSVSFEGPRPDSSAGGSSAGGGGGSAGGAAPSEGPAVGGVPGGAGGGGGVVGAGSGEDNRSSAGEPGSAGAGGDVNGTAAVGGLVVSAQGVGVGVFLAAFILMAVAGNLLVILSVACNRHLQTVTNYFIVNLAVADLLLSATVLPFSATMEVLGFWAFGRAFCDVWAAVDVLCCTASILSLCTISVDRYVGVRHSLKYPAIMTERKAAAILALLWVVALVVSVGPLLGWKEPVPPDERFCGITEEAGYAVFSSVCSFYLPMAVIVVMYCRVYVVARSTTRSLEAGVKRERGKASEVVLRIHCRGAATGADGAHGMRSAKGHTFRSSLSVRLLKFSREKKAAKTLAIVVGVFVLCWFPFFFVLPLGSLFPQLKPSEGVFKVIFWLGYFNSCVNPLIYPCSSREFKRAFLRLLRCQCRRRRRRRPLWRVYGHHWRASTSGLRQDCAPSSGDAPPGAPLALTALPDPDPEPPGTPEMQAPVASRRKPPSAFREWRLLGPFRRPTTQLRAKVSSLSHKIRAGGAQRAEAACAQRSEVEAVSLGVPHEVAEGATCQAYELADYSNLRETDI
Kind of assay: NIMH PDSP radioligand competition binding, α1D.

Assay [5] concerns the target T3, α2A (Homo sapiens, UniProt P08913).
T3 sequence (P08913 1-465): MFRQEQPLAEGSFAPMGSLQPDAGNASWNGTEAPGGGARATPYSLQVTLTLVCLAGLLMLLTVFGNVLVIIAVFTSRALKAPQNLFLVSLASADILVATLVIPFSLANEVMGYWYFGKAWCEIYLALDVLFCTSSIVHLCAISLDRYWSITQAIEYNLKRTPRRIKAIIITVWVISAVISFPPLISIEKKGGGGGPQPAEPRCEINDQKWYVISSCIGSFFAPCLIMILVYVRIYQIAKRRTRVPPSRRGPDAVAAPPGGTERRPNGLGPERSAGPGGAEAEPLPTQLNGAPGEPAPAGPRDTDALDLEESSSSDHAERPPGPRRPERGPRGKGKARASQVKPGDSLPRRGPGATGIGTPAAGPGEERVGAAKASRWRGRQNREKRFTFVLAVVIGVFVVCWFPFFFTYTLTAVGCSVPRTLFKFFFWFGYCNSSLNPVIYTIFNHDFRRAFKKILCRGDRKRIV
Description: NIMH PDSP radioligand competition binding, α2A.

In assay [6] the target is T4, α2B (Homo sapiens, UniProt P18089).
T4 sequence (P18089 1-450): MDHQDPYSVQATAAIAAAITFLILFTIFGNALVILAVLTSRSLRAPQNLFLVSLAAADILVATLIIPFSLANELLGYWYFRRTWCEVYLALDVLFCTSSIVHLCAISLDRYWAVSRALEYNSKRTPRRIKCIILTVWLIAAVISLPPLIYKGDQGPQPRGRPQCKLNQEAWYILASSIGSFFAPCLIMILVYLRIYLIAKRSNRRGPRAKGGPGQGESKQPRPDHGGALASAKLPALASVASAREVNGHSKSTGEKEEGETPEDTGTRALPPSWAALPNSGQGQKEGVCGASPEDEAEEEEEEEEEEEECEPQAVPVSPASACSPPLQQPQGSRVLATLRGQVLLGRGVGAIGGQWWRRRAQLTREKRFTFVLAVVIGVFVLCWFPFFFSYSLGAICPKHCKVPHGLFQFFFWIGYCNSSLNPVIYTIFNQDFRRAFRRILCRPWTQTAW
Kind of assay: NIMH PDSP radioligand competition binding, α2B.

For assay [7], the target named is norepinephrine transporter (NET) (Homo sapiens, UniProt P23975). Kind of assay: NIMH PDSP radioligand competition binding, NET.
The target in assay [8] is D1 (Homo sapiens, UniProt P21728). Kind of assay: NIMH PDSP radioligand competition binding, D1.
Assay [9] concerns the target D3 (Homo sapiens, UniProt P35462). Description: NIMH PDSP radioligand competition binding, D3.
The target of assay [10] is D5 (Homo sapiens, UniProt P21918). Kind of assay: NIMH PDSP radioligand competition binding, D5.
The target of assay [11] is δ-opioid receptor (DOR) (Homo sapiens, UniProt P41143). Description: NIMH PDSP radioligand competition binding, DOR.
Assay [12] deals with κ-opioid receptor (KOR) (Homo sapiens, UniProt P41145). Description: NIMH PDSP radioligand competition binding, KOR.
Assay [13] has as its target H2 (Homo sapiens, UniProt P25021). Description: NIMH PDSP radioligand competition binding, H2.
In assay [14] the target is H3 (Cavia porcellus, UniProt Q9JI35). Kind of assay: NIMH PDSP radioligand competition binding, H3. Set-up: species or system Guinea pig.
Setting [15] is: Binding Affinity (Ki, nM), [3H]SCH23390, cloned human receptor.
Setting [16] is: Binding Affinity (Ki, nM), DOR, [3H]DADLE, cloned human receptor.
[17] abbreviates: Binding Affinity (Ki, nM), [3H]tiotidine, cloned human receptor.

Turning to `C=CCN(CC=C)CCc1c(-c2ccccc2)[nH]c2ccccc12` [2-Ph-DALT, 2-phenyl-N,N-diallyltryptamine], the inhibitory constant (Ki) (in general, the dissociation constant of the complex between target and ligand, obtained from inhibition or displacement) in [1] is 68 nM; in [2] it was above 10000 nM; in assay [3] it was 0.904 µM; in assay [4] it was 0.243 µM; in assay [5] it was 85 nM; in assay [6] it was 78 nM. For the same molecule, the Ki in [7] was 0.42 µM; in [8] (setting [15]), 2790 nM; in assay [8] (Ki value, bound stated) it was below 10000 nM; in [9] it was 342 nM; in assay [10] (setting [15]) it was 2000 nM; in assay [10] (Ki value, bound stated) it was below 10000 nM. Also, the Ki in [11] (setting [16]) is 6790 nM; in assay [11] (Ki value, δ-opioid, bound stated), below 10000 nM; in assay [12], 589 nM; in assay [13] (setting [17]), 367 nM; in [13] (Ki value, bound stated), below 10000 nM; in assay [14], above 10 µM.
Consider `C=CCN(CC=C)CCc1c[nH]c2cccc(OC(C)=O)c12` [4-AcO-DALT, 4-acetoxy-N,N-diallyltryptamine], for which the Ki in assay [1] was 1790 nM; in assay [2] it was 724 nM; in [3], above 10 µM; in assay [4], above 10 µM; in [5] it was 342 nM; in assay [6], 170 nM. The Ki in [7] was above 10 µM; in assay [8] (setting [15]), above 10000 nM; in assay [9], above 10000 nM; in assay [10] (setting [15]), above 10000 nM; in assay [11] (setting [16]), above 10000 nM; in [12], 5230 nM. The values for the Ki in [13] (setting [17]) and in assay [14] were above 10000 nM and above 10 µM, respectively.
Take `C=CCN(CC=C)CCc1c[nH]c2cccc(O)c12` [4-HO-DALT, 4-hydroxy-N,N-diallyltryptamine]: the Ki was 213 nM in [1]; 600 nM in [2]; above 10 µM in [3]; above 10 µM in assay [4]; 1210 nM in assay [5]; above 10000 nM in [6]. Besides, the inhibitory constant (Ki) was above 10 µM in assay [7]; above 10000 nM in [8] (setting [15]); 1570 nM in [9]; above 10000 nM in assay [10] (setting [15]); above 10000 nM in [11] (setting [16]); above 10000 nM in [12]. Besides, the Ki in assay [13] (setting [17]) is above 10000 nM; in [14], above 10 µM.
On to `C=CCN(CC=C)CCc1c(C)[nH]c2ccc(F)cc12` [5-F-2-Me-DALT, 5-fluoro-2-methyl-N,N-diallyltryptamine], for which the Ki in assay [1] is 168 nM; in assay [2], 493 nM; in assay [3], above 10 µM; in [4], above 10 µM; in assay [5], 53 nM; in assay [6] it was 108 nM. For the same molecule, the inhibition constant Ki is above 10 µM in [7]; above 10000 nM in [8] (setting [15]); 414 nM in assay [9]; above 10000 nM in [10] (setting [15]); above 10000 nM in assay [11] (setting [16]); 580 nM in assay [12]. Further, the Ki was above 10000 nM in assay [13] (setting [17]) and 1.4 µM in assay [14].
Consider `C=CCN(CC=C)CCc1c(C)[nH]c2ccc(OC)cc12` [5-MeO-2-Me-DALT, 5-methoxy-2-methyl-N,N-diallyltryptamine], for which the inhibitory constant (Ki) in assay [1] was 206 nM; in assay [2], above 10000 nM; in [3], above 10 µM; in [4], 2.41 µM; in [5], 189 nM; in assay [6], 335 nM. The Ki is above 10 µM in [7]; above 10000 nM in assay [8] (setting [15]); 2400 nM in assay [9]; above 10000 nM in assay [10] (setting [15]); above 10000 nM in [11] (setting [16]); 391 nM in assay [12]. Also, the inhibition constant Ki is above 10000 nM in assay [13] (setting [17]) and 1.13 µM in [14].
On to `C=CCN(CC=C)CCc1c[nH]c2c(CC)cccc12` [7-Et-DALT, 7-ethyl-N,N-diallyltryptamine], for which the Ki in [1] was above 10000 nM; in assay [2] it was above 10000 nM; in assay [3], above 10 µM; in [4] it was above 10 µM; in assay [5], 141 nM; in [6], 489 nM. Also, the inhibition constant (Ki) in assay [7] was 1.88 µM; in [8] (setting [15]) it was above 10000 nM; in [9], 1080 nM; in assay [10] (setting [15]) it was above 10000 nM; in assay [11] (setting [16]) it was above 10000 nM; in [12] it was 580 nM. The inhibitory constant (Ki) in assay [13] (setting [17]) was above 10000 nM; in assay [14], above 10 µM.
